Data as given in ChEMBL document CHEMBL4828715, “Discovery, Structure-Activity Relationships, and In Vivo Evaluation of Novel Aryl Amides as Brain Penetrant Adaptor Protein 2-Associated Kinase 1 (AAK1) Inhibitors for the Treatment of Neuropathic Pain” (J Med Chem, 2021).
Calls of active or inactive are those of the source. The rule behind the calls is not given here.

Key:
[1] = Ratio of drug concentration in brain to plasma of Sprague-Dawley rat model of chronic constriction injury-induced neuropathic pain at 60 mg/kg, sc measured after 240 mins; type: ADME, organism-based; conditions: read-out: BPR
[2] = Drug concentration in plasma of Sprague-Dawley rat model of chronic constriction injury-induced neuropathic pain at 1 mg/kg, sc; type: ADME, organism-based; conditions: in vivo
[3] = molecular target: Dual specificity protein kinase CLK4 (Homo sapiens, UniProt Q9HAZ1); assay: Inhibition of wild-type human partial length CLK4 (R135 to K481 residues) expressed in bacterial expression system by Kinomescan method
[4] = Drug concentration in plasma of C57BL6 mouse at 1 mg/kg, sc; type: ADME, organism-based; conditions: in vivo
Rattus norvegicus [5] = assay: Antinociceptive activity in Sprague-Dawley rat model of chronic constriction injury-induced neuropathic pain assessed as reduction in thermal hyperalgesia 3 mg/kg, sc by Von Frey test relative to control; type: functional; parameters: scale not given: the % may be the effect or the level left
[6] = Permeability of the compound across basolateral to apical membrane in human Caco-2 cells incubated for 2 hrs by LC-MS/MS analysis; type: ADME, cell-based; conditions: caco-2, 2 h
[7] = molecular target: Serine/threonine-protein kinase haspin (Homo sapiens, UniProt Q8TF76); assay: Inhibition of wild-type human partial length HASPIN (I452 to K798 residues) expressed in mammalian expression system by Kinomescan method relative to control
[8] = Unbound drug concentration in plasma of Sprague-Dawley rat model of chronic constriction injury-induced neuropathic pain at 10 mg/kg, sc; type: ADME, organism-based; conditions: in vivo
[9] = molecular target: cAMP-dependent protein kinase catalytic subunit PRKX (Homo sapiens, UniProt P51817); assay: Inhibition of wild-type human partial length PRKX (M1 to F358 residues) expressed in bacterial expression system by Kinomescan method
[10] = molecular target: AP2-associated protein kinase 1 (Homo sapiens, UniProt Q2M2I8); assay: Inhibition of recombinant GST-Xa-tagged human AAK1 (30 to 330 residues) using 5-FAM-labelled Alla-KEEQSQITSQVTGQIGWR-NH2 peptide as substrate incubated for 3 hrs in presence of ATP by electrophoretic analysis
[11] = Unbound drug concentration in plasma of Sprague-Dawley rat model of chronic constriction injury-induced neuropathic pain at 30 mg/kg, sc; type: ADME, organism-based; conditions: in vivo
[12] = molecular target: AP2-associated protein kinase 1 (Mus musculus, UniProt Q3UHJ0); assay: In vivo inhibition of AAK1 in C57BL6 mouse assessed as suppression of mu2 phosphorylation in brain lysate by Western blot analysis; type: functional, organism-based
[13] = molecular target: AP2-associated protein kinase 1 (Mus musculus) (UniProt Q3UHJ0); assay: In vivo inhibition of AAK1 in C57BL6 mouse assessed as suppression of mu2 phosphorylation in brain lysate at 30 mg/kg, sc measured; type: functional, organism-based
[14] = Drug concentration in plasma of Sprague-Dawley rat model of chronic constriction injury-induced neuropathic pain at 30 mg/kg, sc; type: ADME, organism-based; conditions: in vivo
[15] = Drug concentration in Sprague-Dawley rat plasma at 60 mg/kg, sc measured after 190 mins; type: ADME, organism-based
[16] = Drug concentration in plasma of C57BL6 mouse at 10 mg/kg, sc; type: ADME, organism-based; conditions: in vivo
[17] = Induction of motor coordination impairment in Sprague-Dawley rat at 60 mg/kg, sc measured up to 180 mins by rotarod test; type: organism-based; conditions: in vivo, 3 h
Rattus norvegicus [18] = assay: Antinociceptive activity in Sprague-Dawley rat model of chronic constriction injury-induced neuropathic pain assessed as reduction in thermal hyperalgesia 60 mg/kg, sc by Von Frey test relative to control; type: functional; parameters: scale not given: the % may be the effect or the level left
[19] = Unbound brain-to-plasma concentration ratio in C57BL6 mouse at 30 mg/kg, sc; type: ADME, organism-based; conditions: read-out: K(p,uu,brain)
[20] = Drug concentration in C57BL6 mouse brain at 10 ml/kg, sc measured after 2 hrs by LC-MS/MS analysis; type: ADME, organism-based; conditions: read-out: Ct
[21] = molecular target: Citron Rho-interacting kinase (Homo sapiens, UniProt O14578); assay: Inhibition of CRIK (unknown origin) assessed as residual binding level at 1 uM by Kinomescan method relative to control
[22] = Protein binding in human plasma assessed as unbound fraction at 10 uM measured after 5 hrs by equilibrium dialysis method

Chain of AP2-associated protein kinase 1 (Mus musculus) (Q3UHJ0 whole entry, looked up): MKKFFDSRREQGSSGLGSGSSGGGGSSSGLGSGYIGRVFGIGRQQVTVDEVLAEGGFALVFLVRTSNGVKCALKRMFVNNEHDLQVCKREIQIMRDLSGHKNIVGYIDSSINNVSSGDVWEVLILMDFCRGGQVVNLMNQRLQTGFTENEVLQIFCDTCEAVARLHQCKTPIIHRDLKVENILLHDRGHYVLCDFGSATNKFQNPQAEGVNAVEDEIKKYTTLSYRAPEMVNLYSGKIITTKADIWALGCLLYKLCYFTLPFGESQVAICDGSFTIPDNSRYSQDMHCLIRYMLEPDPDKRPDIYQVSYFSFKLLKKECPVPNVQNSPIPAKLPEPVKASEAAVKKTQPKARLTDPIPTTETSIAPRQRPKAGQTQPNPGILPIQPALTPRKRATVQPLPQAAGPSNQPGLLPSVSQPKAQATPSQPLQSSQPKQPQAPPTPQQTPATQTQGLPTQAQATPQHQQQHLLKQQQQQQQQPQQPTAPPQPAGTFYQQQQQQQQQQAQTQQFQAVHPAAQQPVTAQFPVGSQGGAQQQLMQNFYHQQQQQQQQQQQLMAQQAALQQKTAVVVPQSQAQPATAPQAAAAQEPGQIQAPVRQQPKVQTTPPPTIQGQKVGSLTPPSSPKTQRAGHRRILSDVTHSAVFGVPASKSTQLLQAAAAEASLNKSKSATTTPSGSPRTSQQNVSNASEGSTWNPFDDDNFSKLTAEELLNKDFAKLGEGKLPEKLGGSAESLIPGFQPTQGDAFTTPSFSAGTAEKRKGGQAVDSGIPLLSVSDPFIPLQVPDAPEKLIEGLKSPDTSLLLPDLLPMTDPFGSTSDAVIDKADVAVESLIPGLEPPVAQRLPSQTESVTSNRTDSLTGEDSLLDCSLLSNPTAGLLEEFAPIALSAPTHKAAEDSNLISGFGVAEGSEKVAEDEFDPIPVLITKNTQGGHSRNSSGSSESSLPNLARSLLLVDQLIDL
Chain of AP2-associated protein kinase 1 (Mus musculus, UniProt Q3UHJ0) (Q3UHJ0 whole entry): as the sequence (Q3UHJ0 whole entry, looked up) above
Chain of Dual specificity protein kinase CLK4 (Q9HAZ1 whole entry, the tested form may be a part): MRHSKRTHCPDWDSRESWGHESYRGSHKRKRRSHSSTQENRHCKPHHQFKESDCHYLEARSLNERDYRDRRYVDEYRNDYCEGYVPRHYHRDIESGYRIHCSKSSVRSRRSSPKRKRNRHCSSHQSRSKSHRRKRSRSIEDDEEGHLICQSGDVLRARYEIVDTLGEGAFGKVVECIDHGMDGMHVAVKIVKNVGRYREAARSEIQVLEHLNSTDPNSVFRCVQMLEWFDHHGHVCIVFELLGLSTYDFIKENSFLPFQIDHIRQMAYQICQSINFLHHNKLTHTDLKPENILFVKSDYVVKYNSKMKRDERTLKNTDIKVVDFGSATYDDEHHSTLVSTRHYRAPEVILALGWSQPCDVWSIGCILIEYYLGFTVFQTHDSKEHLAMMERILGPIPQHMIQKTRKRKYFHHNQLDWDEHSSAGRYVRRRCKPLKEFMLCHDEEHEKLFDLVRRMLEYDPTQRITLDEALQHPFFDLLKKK
Chain of Citron Rho-interacting kinase (O14578 whole entry): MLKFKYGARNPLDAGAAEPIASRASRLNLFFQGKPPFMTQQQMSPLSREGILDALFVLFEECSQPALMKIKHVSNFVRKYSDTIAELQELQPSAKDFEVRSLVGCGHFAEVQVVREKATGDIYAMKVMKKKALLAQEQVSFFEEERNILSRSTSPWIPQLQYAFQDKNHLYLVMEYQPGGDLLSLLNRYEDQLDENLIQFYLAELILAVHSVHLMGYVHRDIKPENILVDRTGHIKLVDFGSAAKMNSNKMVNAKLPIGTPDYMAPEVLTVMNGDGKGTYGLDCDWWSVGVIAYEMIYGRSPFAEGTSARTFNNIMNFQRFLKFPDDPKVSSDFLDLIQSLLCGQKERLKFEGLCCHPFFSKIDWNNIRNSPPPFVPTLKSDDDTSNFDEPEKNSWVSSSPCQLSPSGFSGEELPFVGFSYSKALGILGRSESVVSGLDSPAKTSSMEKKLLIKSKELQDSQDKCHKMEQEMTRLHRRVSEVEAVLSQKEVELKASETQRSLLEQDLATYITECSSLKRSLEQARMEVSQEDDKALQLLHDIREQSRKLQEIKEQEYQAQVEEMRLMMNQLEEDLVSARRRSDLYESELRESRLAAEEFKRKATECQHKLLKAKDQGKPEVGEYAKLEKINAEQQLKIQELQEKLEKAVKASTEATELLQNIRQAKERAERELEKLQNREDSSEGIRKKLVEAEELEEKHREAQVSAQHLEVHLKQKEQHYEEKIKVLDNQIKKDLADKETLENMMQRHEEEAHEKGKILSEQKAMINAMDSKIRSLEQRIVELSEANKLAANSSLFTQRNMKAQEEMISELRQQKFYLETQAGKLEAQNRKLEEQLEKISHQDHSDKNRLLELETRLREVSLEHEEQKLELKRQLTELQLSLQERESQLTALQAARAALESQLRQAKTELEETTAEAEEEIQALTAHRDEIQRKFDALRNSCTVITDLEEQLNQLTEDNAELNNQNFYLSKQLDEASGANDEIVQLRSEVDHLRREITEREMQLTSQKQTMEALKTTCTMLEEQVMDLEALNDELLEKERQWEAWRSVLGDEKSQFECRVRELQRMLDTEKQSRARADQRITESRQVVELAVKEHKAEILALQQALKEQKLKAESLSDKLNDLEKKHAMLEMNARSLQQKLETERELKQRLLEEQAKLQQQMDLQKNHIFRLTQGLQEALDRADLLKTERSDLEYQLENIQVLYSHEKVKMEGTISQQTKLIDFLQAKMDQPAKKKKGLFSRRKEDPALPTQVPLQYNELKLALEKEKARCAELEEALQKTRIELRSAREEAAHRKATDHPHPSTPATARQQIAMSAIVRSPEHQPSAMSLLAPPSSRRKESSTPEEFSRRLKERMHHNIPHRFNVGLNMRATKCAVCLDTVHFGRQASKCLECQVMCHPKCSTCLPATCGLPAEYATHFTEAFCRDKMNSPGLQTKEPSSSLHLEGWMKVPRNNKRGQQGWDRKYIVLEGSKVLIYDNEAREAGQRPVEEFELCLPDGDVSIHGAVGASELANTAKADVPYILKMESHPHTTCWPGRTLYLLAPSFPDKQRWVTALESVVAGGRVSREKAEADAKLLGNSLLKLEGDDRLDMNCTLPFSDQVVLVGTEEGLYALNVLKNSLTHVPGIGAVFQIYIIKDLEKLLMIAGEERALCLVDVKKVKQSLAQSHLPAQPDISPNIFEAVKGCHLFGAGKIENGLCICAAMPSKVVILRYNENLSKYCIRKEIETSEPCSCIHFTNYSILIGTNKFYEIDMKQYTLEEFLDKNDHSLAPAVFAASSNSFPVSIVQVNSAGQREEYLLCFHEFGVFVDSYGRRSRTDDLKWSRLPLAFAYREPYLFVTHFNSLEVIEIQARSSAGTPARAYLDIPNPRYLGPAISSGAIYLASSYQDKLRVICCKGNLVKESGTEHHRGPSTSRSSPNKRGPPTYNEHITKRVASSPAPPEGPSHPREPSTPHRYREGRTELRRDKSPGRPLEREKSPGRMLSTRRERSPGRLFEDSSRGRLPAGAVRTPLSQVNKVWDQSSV
Chain of cAMP-dependent protein kinase catalytic subunit PRKX (P51817 whole entry, the tested form may be a part): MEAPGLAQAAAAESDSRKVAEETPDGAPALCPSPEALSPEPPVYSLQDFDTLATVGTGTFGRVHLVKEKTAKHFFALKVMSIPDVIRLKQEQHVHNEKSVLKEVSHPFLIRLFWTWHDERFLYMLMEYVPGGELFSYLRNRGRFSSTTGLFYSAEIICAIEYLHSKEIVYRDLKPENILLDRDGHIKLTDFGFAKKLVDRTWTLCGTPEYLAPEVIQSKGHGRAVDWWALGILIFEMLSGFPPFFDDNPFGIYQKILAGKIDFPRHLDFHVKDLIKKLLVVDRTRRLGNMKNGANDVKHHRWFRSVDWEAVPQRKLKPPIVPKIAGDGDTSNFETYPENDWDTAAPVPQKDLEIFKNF
Chain of AP2-associated protein kinase 1 (Homo sapiens, UniProt Q2M2I8) (Q2M2I8 whole entry, the tested form may be a part): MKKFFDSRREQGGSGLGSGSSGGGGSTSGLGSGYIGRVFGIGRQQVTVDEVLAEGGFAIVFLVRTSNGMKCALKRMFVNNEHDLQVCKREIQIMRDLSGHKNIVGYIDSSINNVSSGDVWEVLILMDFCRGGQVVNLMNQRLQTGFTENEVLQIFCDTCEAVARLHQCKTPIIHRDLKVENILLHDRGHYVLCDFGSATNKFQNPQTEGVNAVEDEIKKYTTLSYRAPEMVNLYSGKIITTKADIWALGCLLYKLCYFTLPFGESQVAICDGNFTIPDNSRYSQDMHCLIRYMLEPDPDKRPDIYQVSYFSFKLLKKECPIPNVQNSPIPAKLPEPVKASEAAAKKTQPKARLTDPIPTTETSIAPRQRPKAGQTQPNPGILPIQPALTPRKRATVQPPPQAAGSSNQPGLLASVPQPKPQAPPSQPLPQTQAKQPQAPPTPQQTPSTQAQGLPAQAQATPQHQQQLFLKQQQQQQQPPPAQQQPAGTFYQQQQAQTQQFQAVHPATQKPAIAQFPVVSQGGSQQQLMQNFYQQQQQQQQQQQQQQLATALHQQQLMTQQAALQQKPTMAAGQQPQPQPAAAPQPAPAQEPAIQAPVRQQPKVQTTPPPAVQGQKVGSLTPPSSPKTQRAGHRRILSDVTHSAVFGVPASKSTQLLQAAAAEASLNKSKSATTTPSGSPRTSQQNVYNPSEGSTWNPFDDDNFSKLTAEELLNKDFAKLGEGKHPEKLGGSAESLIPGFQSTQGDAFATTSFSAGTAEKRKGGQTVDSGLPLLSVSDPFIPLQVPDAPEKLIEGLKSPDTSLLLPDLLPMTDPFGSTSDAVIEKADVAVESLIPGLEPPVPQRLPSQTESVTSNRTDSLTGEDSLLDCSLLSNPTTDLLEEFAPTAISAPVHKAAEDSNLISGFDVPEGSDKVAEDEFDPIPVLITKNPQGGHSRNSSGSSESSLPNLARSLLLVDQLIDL

## CC(C)C[C@@H](N)C(=O)Nc1ccc(-c2cnco2)c(OC(F)F)c1
[1]
  Kp at 4 h: 0.5
[2]
  concentration: 0.4 µM
[3]
  IC50: 1930 nM
[4]
  concentration: 1.2 µM
Rattus norvegicus [5]
  Activity: 35%
[6]
  permeability: 113 10^-6 cm/s
[7]
  IC50: 922 nM
[8]
  Cp(f): 0.22 µM
[9]
  IC50: 326 nM
[10]
  IC50: 12 nM
[11]
  Cp(f): 1.04 µM
[12]
  EC50: 8300 nM
[13]
  inhibition: Active
[14]
  concentration: 52 µM
[15]
  concentration at 3.167 h: 84 µM
[16]
  concentration: 9.1 µM
[17]
  Activity: Non-Toxic
Rattus norvegicus [18]
  Activity: 113%
[19]
  Kp uu: 0.71
[20]
  concentration at 2 h: 18.5 µM
[21]
  Activity: 0.7%
[22]
  fraction unbound at 5 h, 10 µM: 0.038
